Laboratory results reported in patent US8389544B2, “Isoquinolone compounds as subtype-selective agonists for melatonin receptors MT1 and MT2” (The Hong Kong University of Science and Technology, priority 2007, dated 2013).

Key:
[1] = test system: MT1/293; assay: MTT cytotoxicity assay, MT1/293 cells; type: cell-based; settings: percentage of untreated control cells
Description: (§1) This assay evaluates the cytotoxic effects of the novel isoquinolone compounds based on the cellular viability under chronic treatments. Viable cells but not dead cells can turn the substrate into a colored product, which yields higher absorbance. […] A low percentage indicates low cytoviability (or high cytotoxicity).
(§2) 5. Cytotoxicity Test Using MTT Assay
(§3) Cells were seeded into clear 96-well plate at an appropriate density in 100 μl growth medium and were allowed to grow overnight. The novel isoquinolone compounds were diluted to desired concentrations using fresh growth medium, and these dilutions were used to replace the growth media in each well. After incubating for 24-96 h, 10 μl of the MTT labeling reagent (Roche) was added to each well and the cells were incubated in a CO2 incubator for 4 h. 100 μl solubilization buffer was then added into each well and incubated overnight for complete solubilization of the purple formazan crystals. […] Each condition was performed in triplicate in every experiment and the results were expressed as % of blank control±SD.

[2] = test system: MT2/293; assay: MTT cytotoxicity assay, MT2/293 cells; type: cell-based; settings: percentage of untreated control cells
Description: as §1, §2, §3

[3] = test system: Parental 293; assay: MTT cytotoxicity assay, parental 293 cells; type: cell-based; settings: percentage of untreated control cells
Description: as §1, §2, §3

[4] = molecular target: T1, MT1 receptor (Homo sapiens, UniProt P48039); assay: CRE-Luc (luciferase reporter gene) assay, MT1; type: cell-based; parameters: expressed in transfected cells; settings: HEK 293-pCREluc cells with MT1; inhibition of forskolin response
T1 sequence (P48039 whole entry): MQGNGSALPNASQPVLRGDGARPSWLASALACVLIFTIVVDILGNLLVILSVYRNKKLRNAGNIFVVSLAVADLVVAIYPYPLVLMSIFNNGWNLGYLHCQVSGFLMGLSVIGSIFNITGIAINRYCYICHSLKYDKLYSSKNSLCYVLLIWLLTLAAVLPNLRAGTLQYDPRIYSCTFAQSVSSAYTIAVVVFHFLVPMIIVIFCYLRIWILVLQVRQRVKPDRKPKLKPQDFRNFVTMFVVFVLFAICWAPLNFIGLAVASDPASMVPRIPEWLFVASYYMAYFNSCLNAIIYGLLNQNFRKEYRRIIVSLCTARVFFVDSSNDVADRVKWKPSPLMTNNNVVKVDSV
Description: (§4) The luciferase reporter gene assay offers another way to measure melatonin receptor activation. Cells expressing cAMP-responsive element-driven luciferase reporter gene (293-pCREluc) and either the MT1 or MT2 receptor are treated with forskolin (a substance which stimulates cAMP production as well as the subsequent luciferase gene expression) alone or with a novel isoquinolone compound. As melatonin receptor activation inhibits cAMP production, any suppression in the expression of luciferase leads to a decrease in enzymatic activities and a reduction in the amount of luminescence signal generated.
(§5) The luciferase assay, a reporter gene assay, was performed to confirm the ability of the invention to activate the melatonin receptors. Prior to the assay, HEK (human embryonic kidney) 293 cells are stably transfected with cAMP-responsive element-driven luciferase reporter gene (293-pCREluc) and cDNAs encoding MT1 or MT2 receptors. The cells are then exposed to the novel isoquinolone compounds, after which the substrate luciferin is added and the resulting luminescence measured.
(§6) Prior to the assay human embryonic kidney (HEK) 293 cells (CRL-1573, ATCC) is maintained at 37° C. in minimum essential medium (MEM) supplemented with 10% fetal bovine serum (FBS), 100 units/ml penicillin and 100 μg/ml streptomycin in a humidified atmosphere containing 5% CO2. Human embryonic kidney 293 cells stably transfected with cAMP-responsive element-driven luciferase reporter gene (293-pCREluc) are established and maintained in growth medium supplemented with 300 μg/ml G418 sulphate.
(§7) For luciferase assays, HEK-293 cells stably expressing pCRE-luciferase are seeded at a density of 15,000 cells/well into 96 well plates. Transfection is carried out using Lipofectamine Plus® reagent at 0.2 μl of both Plus and lipofectamine reagents with 50 ng cDNAs encoding MT1 or MT2 receptors per well. After a 3 hour transfection period at 37° C., 50 μl of DMEM with 20% fetal calf serum (FCS) is added into the wells and the plate is incubated at 37° C. for 48 h prior to 24 hour serum starvation. […]
(§8) Cells are harvested by replacing medium in the well by 50 μl luciferase lysis buffer. The Berthold microplate luminometer is maintained at 25° C. throughout the assay. Injector M connected to an empty tube and P connected to the drug tube are set to inject 25 μl of luciferin into appropriate wells. A 1.6 second delay time followed by a 1 second measuring time period is assigned to injector M, whereas injector P is measured for 10 seconds after luciferase substrate is introduced into the well. Results are expressed as relative luminescent units (RLU). Where indicated, agonist-induced activity is expressed as a percentage of the RLU obtained with forskolin.

[5] = molecular target: T2, MT2 receptor (Homo sapiens, UniProt P49286); assay: CRE-Luc (luciferase reporter gene) assay, MT2; type: cell-based; parameters: expressed in transfected cells; settings: HEK 293-pCREluc cells with MT2; inhibition of forskolin response
T2 sequence (P49286 1-362): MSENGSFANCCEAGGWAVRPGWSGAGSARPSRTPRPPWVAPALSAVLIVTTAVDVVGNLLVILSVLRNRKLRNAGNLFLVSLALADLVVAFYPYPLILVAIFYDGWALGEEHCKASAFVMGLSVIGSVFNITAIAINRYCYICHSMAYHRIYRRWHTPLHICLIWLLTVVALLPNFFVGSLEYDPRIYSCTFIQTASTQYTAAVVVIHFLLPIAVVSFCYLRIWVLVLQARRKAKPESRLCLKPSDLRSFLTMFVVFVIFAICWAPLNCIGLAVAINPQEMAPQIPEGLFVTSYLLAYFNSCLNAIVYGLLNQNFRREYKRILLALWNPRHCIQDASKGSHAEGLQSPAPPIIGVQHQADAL
Description: as §4, §5, §6, §7, §8

[6] = molecular target: T1, MT1 receptor; assay: Competitive [3H]melatonin binding assay, MT1; parameters: expressed in transfected cells
Description: (§9) Competitive ligand binding assays were performed to examine the receptor binding characteristics of the novel isoquinolone compounds. The assay measures the ability of the novel isoquinolone compounds to bind and displace the radiolabelled endogenous ligand, [^3H]melatonin. Increasing concentrations of the novel compounds are added to displace the [^3H]melatonin-bound to MT1 or MT2 receptor-expressing cells.
(§10) 4. Competitive Binding Assay
(§11) The ability of compounds to bind to MT1 and/or MT2 receptors is determined using radioligand binding assays. […] 48 hours following transfection, cells are harvested in binding buffer (50 mM Tris-HCl, 2 mM MgCl2, 1 mM EDTA, pH 7.4). 100,000 cells are incubated with 1 nM [^3H] melatonin (specific activity: 83 Ci/mmol; GE Healthcare) and appropriate concentrations (0.1 nM to 1 μM) of unlabelled ligands in a total volume of 100 μl in 96-well plates (PerkinElmer Life And Analytical Sciences, Inc., Boston, Mass.) for 2 hours at room temperature. Reactions are terminated by rapid filtration through a 96-well cell harvester onto 96-well GF/C filter mats. Filters are washed with 500 μl of ice-cold binding buffer, dried and sealed in a polyethylene bag with 3.5 ml of scintillation fluid and counted for tritium in a Microbeta Jet scintillation counter. […] Data are analyzed by nonlinear least-squares regression using GraphPad Prism 3.02.

[7] = molecular target: T2, MT2 receptor; assay: Competitive [3H]melatonin binding assay, MT2; parameters: expressed in transfected cells; settings: displacement of [3H]melatonin
Description: as §9, §10, §11

[8] = molecular target: T1, MT1 receptor; assay: cAMP assay, MT1; type: cell-based; parameters: expressed in transfected cells; host or cells: COS-7 (monkey kidney fibroblast); settings: inhibition of forskolin-stimulated cAMP production; MT1-expressing cells
[9] = molecular target: T2, MT2 receptor; assay: cAMP assay, MT2; type: cell-based; parameters: expressed in transfected cells; host or cells: COS-7 (monkey kidney fibroblast); settings: inhibition of forskolin-stimulated cAMP production; MT2-expressing cells

COc1ccc2[nH]c(I)c(CCNC(C)=O)c2c1 [Compound 2-IMT, 2-iodomelatonin, reference compound]
MTT Assay MT1/293 % Viability ± SEM [1]: 113.3 ± 7.0%
MTT Assay MT2/293 % Viability ± SEM [2]: 119.5 ± 8.3%
MTT Assay Parental 293 % Viability ± SEM [3]: 105.9 ± 4.3%
CRE-Luc Assay MT1 % Inh ± SEM of 1 μM Fsk [4]: 73.0 ± 2.2%
CRE-Luc Assay MT2 % Inh ± SEM of 1 μM Fsk [5]: 61.9 ± 5.0%
displacement of bound [3H]melatonin ([6]; b129, MT1 or MT2 receptor-expressing cells, both subtypes): 85-95%
Binding Assay MT1 % Inh ([6]; displacement of [3H]melatonin): 94.9%
Binding Assay MT2 % Inh [7]: 85.1%
cAMP Assay MT1 % Inh [8]: 48.5 ± 17.8%
cAMP Assay MT2 % Inh [9]: 51.9 ± 5.6%
